Consider 3 compounds from patent US20190365673A1, “Immunomodulatory Compounds” (Lankenau Institute for Medical Research, priority 2016, published 2019).

SMILES strings stand for the structures.

The subject of data set [1] is polyamine transport system (PTS). Briefly: Radiolabeled spermidine transport assay, murine melanoma cells. Format: cell-based. Here is the method:
(§1) FIG. 9A: Murine BRAF^V600E YUMM1.7 melanoma cells and BRAF^WT B16F10 melanoma cells were treated with increasing doses of AP. After 72 hours of culture, cell survival was determined via EZQuant™ Cell Quantifying assay. IC50 values were calculated by GraphPad Prism 6. FIG. 9B: Murine BRAF^V600E YUMM1.7 melanoma cells and BRAF^WT B16F10 melanoma cells were treated with increasing doses of AP±1 mM DFMO or with PLX4720. After 72 hours of culture, cell survival was determined via EZQuant™ Cell Quantifying assay. IC50 values were calculated by GraphPad Prism 6. […] Cells were washed with cold PBS containing 50 μM spermidine, and cell lysates were assayed for CPM ^3H-spermidine per mg protein by scintillation counting.
(§2) Polyamine transport in tumor cells was evaluated essentially as described (Kramer, et al. (1993) J. Cell Physiol., 155(2):399-407; Nilsson, et al. (2005) Cancer Cell 7(5):433-444). Radioactive spermidine (Net-522 Spermidine Trihydrochloride, [Terminal Methylenes-^3H(n)]) from Perkin Elmer was used (specific activity: 16.6 Ci/mmol). Cells were plated in 96 well plates and grown to approximately 80% confluence. Half of the cells were treated with 1 mM DFMO for 40 hours. After repeated washing with PBS, ^3H-spermidine was added at 1 μM and incubated for 60 minutes at 37° C. Cells were then washed with cold PBS containing 50 μM spermidine and lysed in 0.1% SDS at 37° C. for 30 minutes with mixing. Cell lysates were then aliquoted for scintillation counting and for protein assay using a mini-BioRad assay. Results were expressed as CPM/g protein.

Data set [2] has the same test system. In words: Radiolabeled spermidine transport assay, human melanoma cell lines. Type of data set: cell-based. Conditions: FIG. 8A, WM983B (BRAF V600E), 1 mM DFMO 40 h. Here is the method:
as §2

The test system of data set [3] is B16F10-sTAC melanoma tumors. Briefly: B16F10-sTAC melanoma tumor model. Conditions: for polyamine levels in tumors (HPLC): FIG. 1D, compared with vehicle-treated mice; for cytokine levels in tumors: FIG. 3, compared to vehicle treated mice; for B16F10-sTAC tumor growth compared to vehicle: Trimer PTI 3 mg/kg i.p. daily and/or 0.25% DFMO in drinking water. As for the experimental part: FIG. 1A: Mice were subcutaneously injected with 5×10^5 B16F10-sTAC melanoma cells. When tumors were 50-100 mm^3 in size, treatment was initiated with either saline, 0.25% DFMO (w/v) in the drinking water, Trimer PTI (i.p., 3 mg/kg, once a day) or both DFMO and Trimer PTI. […] FIG. 1B: Upon sacrifice, tumors were excised and weighed (mean±SEM). FIG. 1C: Spleen weight was determined upon sacrifice (mean±SEM). FIG. 1D: Polyamine levels were determined in tumors by HPLC and normalized to DNA levels in the tissue extracts (nmol/mg DNA). […] Trimer PTI levels were determined in tumor and skin supernatants by mass spectrometry and normalized to tissue protein concentration (nmol/mg protein). n=5-10 mice per group; *=p≤0.05 and #=p≤0.01 compared to vehicle-treated mice.
Tumor models were established by subcutaneous injections of 5×10^5 B16F10-sTAC cells in C57B16 mice or 5×10^5 CT26.CL25 cells in Balb/c mice. Mice were monitored twice a week for tumor growth. Treatment with 0.25% (w/v) DFMO in the drinking water and the Trimer PTI (3 mg/kg daily by intraperitoneal injection) was initiated when tumors were palpable (50-100 mm^3). For adoptive transfers, spleens were excised and pressed through a nylon filter to obtain a single cell suspension. The resulting suspension was incubated with red cell lysis buffer for 5 minutes to lyse red blood cells. Gr1^+ cells were stained with a PE conjugated antibody and then isolated using anti-PE microbeads (Miltenyi Biotec) as per the manufacturer's instructions. Gr1^+ positive cells were injected into the retro-orbital cavity. Tumor growth was assessed morphometrically using calipers, and tumor volumes were calculated using the formula V (mm^3)=π/6×A×B^2 (A is the larger diameter and B is the smaller diameter).
Upon sacrifice, splenocytes from B16F10-sTAC tumor bearing mice and tumor cell suspensions from CT26.CL25 tumor bearing mice were analyzed for IFN-γ producing cells by enzyme-linked immunosorbent spot (ELISpot) assay. Multiscreen filtration plates (Millipore) were coated with 0.5 μg/mL of purified anti-mouse IFN-γ capture antibody (Biolegend) overnight at 4° C. Single-cell suspensions of splenocytes or tumors were plated at 1×10^6 and 5×10^5 per well respectively. For ELISpot assays with splenocytes from B16F10-sTAC tumor bearing mice, cells were stimulated with the […] (SEQ ID NO: 1) peptide (Anaspec) at […]. […] After 16 hours of stimulation at 37° C., the cells were removed by washing and spots were developed with a biotinylated anti-IFN-γ detection antibody and streptavidin-horseradish peroxidase conjugate followed by NITRO-blue tetrazolium chloride and 5-bromo-4-chloro-3′-indoylphosphate p-toluidine salt substrate (Sigma). Spot numbers were counted, and data were reported as IFN-γ-spot forming cells per 10^6 cells.
Mouse tumor tissues were fixed in 4% paraformaldehyde in PBS overnight and embedded in paraffin. Sections were deparaffinized, hydrated, and then heated in 0.01 mol/L sodium citrate buffer (pH 6.0) in a steamer for 8 minutes. Sections were incubated with the primary antibody (rat monoclonal anti-mouse F4/80 [BioRad MCA497GA]) for 2 hours at room temperature followed by biotinylated secondary and then an avidin HRP complex (Vectastain Elite ABC KIT, Vector Laboratories, INC). Immunoreactive cells were localized by incubating the sections with diaminobenzidine and peroxide and then counterstaining with hematoxylin. Pictures were obtained using a Zeiss Axiophot microscope (Carl Zeiss Inc.) with a digital color camera and corresponding software.
B16F10-sTAC tumors were flash frozen in liquid nitrogen, ground and homogenized in PBS containing 0.5 μM dithiothreitol, 0.5 μM Pefabloc and 8 μg/mL leupeptin. Samples were analyzed for monocyte chemoattractant protein-1 (MCP-1), interleukin-6 (IL-6).

The subject of data set [4] is 1205Lu melanoma cells transduced with JARID1B-promoter-EGFP-reporter. In words: JARID1B-promoter-EGFP reporter in spheroids. Format: cell-based, human. Conditions: 2-day exposure, 1205Lu grown as spheroids. The text has this: Treatment with a BRAF inhibitor such as PLX4720 enriches a slow-cycling cancer stem cell-like (CSC) subpopulation of melanoma cells that is characterized by stem cell markers including JARID1B and spheroid formation (Roesch, et al. (2010) Cell 141(4):583-594; Roesch, et al. (2013) Cancer Cell 23(6):811-825). It is thought that cancer stem cell populations exist in a hypoxic microenvironment (Schwab, et al. (2012) Breast Cancer Res., 14(1):R6; Mathieu, et al. (2011) Cancer Res., 71(13):4640-4652; Mohyeldin, et al. (2010) Cell Stem Cell, 7(2):150-161). Endogenous ROS levels are increased in slow cycling JARID1B^high melanoma cells as a result of increased mitochondrial respiration and oxidative phosphorylation (Roesch, et al. (2013) Cancer Cell 23(6):811-825). […] Using 1205Lu melanoma cells stably transduced with a JARID1B-promoter-EGFP-reporter construct (Roesch, et al.

Data set [5] deals with 1205Lu melanoma spheroids. In words: 3D spheroid culture viability (CellTiter-Glo). Type of data set: cell-based, human. Conditions: FIG. 10, 25 μM each drug, 48 h, 3D spheroids on NCPs. As for the experimental part: BRAF^V600E mutant 1205Lu melanoma cells were seeded at 1×10^4 cells in each well of the […] NCPs. When spheroids were formed on day 3, the 3D cultures of spheroids were treated with PLX4720 (25 μM) and/or AP (25 μM). 2D monolayer cultures of 1205Lu melanoma cells were also treated with PLX4720 (25 μM) and/or AP (25 μM). After drug treatment for 48 hours, the viability of spheroids and monolayer cultures was assayed using the CellTiter-Glo Luminescent Cell Viability Assay. The percent cell survival in each treatment group was calculated relative to cells treated with medium only under the same conditions. As controls, the growth of cells without drug treatment under each condition was normalized as 100% separately. The means are presented±SD.
The inorganic nanoscale scaffolding NanoCulture plates (NCP) were purchased from SCIVAX. The base of each NCP is constructed with a transparent cyclo-olefin resinous sheet with a nanoscale indented pattern. To form spheroids, 1205Lu human melanoma cells were seeded in 96-well NCPs at 1×10^4 cells/well in MCDB153 (Sigma)/Leibovitz's L-15 (Cellgro) medium (4:1 ratio) supplemented with 2% heat-inactivated fetal calf serum and 2 mM CaCl2 and incubated in a conventional cell incubator at 37° C. in an atmosphere of 5% CO2 and normal O2 levels. […]
(In general: ATP-based viability assays read luminescence as a measure of living cells.)

In data set [6] the test system is BRAF^WT melanoma cells. Conditions: WM3451, WM3743, WM3211; read-out: IC50 (cell viability); cited from earlier work.
The test system of data set [7] is BRAF^V600E melanoma cells. Conditions: WM983B, WM3734, 1205Lu, WM989, WM88; read-out: IC50 (cell viability); cited from earlier work.
For data set [8], the system named is BRAF^V600E YUMM1.7 melanoma cells. In words: Cell viability assay (EZQuant), YUMM1.7. Conditions: FIG. 9B, 72 h. Type of data set: cell-based, murine. Here is the method:
as §1

For data set [9], the system named is BRAF-mutant melanoma tumor. Briefly: BRAF-mutant melanoma tumor in mice treated with PLX4720. Format: in vivo. Conditions: FIG. 11, PLX4720 alone. As for the experimental part:
FIG. 11 provides a graph of tumor volume in mice over time after treatment with PLX4720 alone or PLX4720 with delayed administration of AP and DFMO.
In addition to the above, the efficacy of AP in vivo was also tested.

The conditions of data set [10]: compared to AMXT1501; cited from earlier work.

Consider `NCCC[C@](N)(C(=O)O)C(F)F` [DFMO, α-difluoromethylornithine, reference compound], for which the “polyamine uptake after DFMO treatment” value in [1] (B16F10 retrovirally expressing BRAF V600E, 1 mM DFMO) is on record as “enhance polyamine uptake”. Further, the “polyamine uptake after DFMO treatment” value in data set [1] (FIG. 9C, B16F10 (BRAF WT), 1 mM DFMO 40 h) is recorded as “no significant induction”. The “PTS activity after DFMO treatment” value in data set [1] (FIG. 9C, YUMM1.7 (BRAF V600E), 1 mM DFMO 40 h) is listed as “marked DFMO-induction of PTS activity”. Moreover, in [2], the “polyamine transport activity after DFMO treatment” value was “dramatically increased polyamine transport activity”. Further, in data set [3], the “polyamine levels in tumors (HPLC)” value is reported as “reduced the levels of putrescine”, the “cytokine levels in tumors” value is “did not significantly alter” and the “B16F10-sTAC tumor growth compared to vehicle” value is given as “only modestly reduced”.

With `CCCS(=O)(=O)Nc1ccc(F)c(C(=O)c2c[nH]c3ncc(Cl)cc23)c1F` [PLX4720, reference compound], the “enrichment of JARID1B-driven GFP expressing cells” value in [4] was determined as 4 fold. Besides, the “cell viability of spheroid cultures” value in [5] is given as “more resistant”. Besides, the IC50 in data set [6] is above 3000 nM; in data set [7] it was at most 3000 nM. Besides, in [8], the “sensitivity to PLX4720 (IC50 compared to B16F10 cells)” value is “very sensitive”. The “BRAF-mutant melanoma tumor volume over time” value in [9] was “initially quickly regress but then grow back”.

For `CNCCCCNCCCCNCc1cc(CNCCCCNCCCCNC)cc(CNCCCCNCCCCNC)c1` [Trimer PTI], in [10], the water solubility entry is recorded as “more water-soluble”. Moreover, the spleen weight entry in [3] (FIG. 1C, Trimer PTI with or without DFMO) is recorded as “no significant effect”. For the same compound, in [3], the “polyamine levels in tumors (HPLC)” value was “no discernible effect”, the “cytokine levels in tumors” value is reported as “did not significantly alter” and the “B16F10-sTAC tumor growth compared to vehicle” value is “only modestly reduced”. Moreover, in data set [3] (FIG. 1E, PBT-treated mice), the “accumulation in tumor compared to non-tumor bearing skin (mass spectrometry)” value was found to be 30 fold.

In general, IC50 refers to the concentration at which inhibition is half-maximal.
